Data from the NIST ThermoML archive (doi:10.1016/j.fluid.2016.06.024).

Experiments:
[1] = molar heat capacity at constant pressure; conditions: Liquid, Flow calorimetry
[2] = molar heat capacity at constant pressure; wn = mass fraction of the nth substance listed; conditions: Liquid, Flow calorimetry, w2 = 0.995

COC(F)(F)C(F)(F)C(F)(F)F [heptafluoropropyl methyl ether]
[1]
Conditions | molar heat capacity at constant pressure [J/K/mol]
255.05 K, 100 kPa | 233.26
255.06 K, 10000 kPa | 230.06
255.06 K, 15000 kPa | 229.26
255.08 K, 5000 kPa | 231.26
266.01 K, 100 kPa | 240.27
266.01 K, 5000 kPa | 238.67
266.02 K, 10000 kPa | 237.06
266.03 K, 15000 kPa | 236.46
275.04 K, 100 kPa | 245.47
275.04 K, 15000 kPa | 241.27
275.05 K, 5000 kPa | 244.27
275.11 K, 10000 kPa | 242.47
284.81 K, 100 kPa | 251.87
284.81 K, 5000 kPa | 250.07
284.86 K, 10000 kPa | 248.67
284.94 K, 15000 kPa | 247.47
294.05 K, 100 kPa | 257.67
294.07 K, 5000 kPa | 255.47
294.08 K, 10000 kPa | 254.47
294.1 K, 15000 kPa | 253.67

CCO [ethanol]
molar heat capacity at constant pressure [J/K/mol], [1]
Conditions | 100 kPa | 5000 kPa | 10000 kPa | 15000 kPa | 20000 kPa
273.17 K | 103.42 | 103.1 | 102.18 | 101.77 | 100.8
293.16 K | 111.62 | 111.02 | 109.97 | 108.95 | 108.21
313.18 K | 120.47 | 119.09 | 117.7 | 116.78 | 115.68
333.19 K | 130.65 | 129.73 | 128.35 | 126.83 | 125.91

COC(F)(F)C(F)(C(F)(F)F)C(F)(F)F [methyl nonafluoroisobutyl ether] + COC(F)(F)C(F)(F)C(F)(F)C(F)(F)F
[2]
Conditions | molar heat capacity at constant pressure [J/K/mol]
253.15 K, 5000 kPa | 209.05
253.16 K, 10000 kPa | 207.55
253.16 K, 15000 kPa | 205.55
253.17 K, 100 kPa | 214.05
264.15 K, 15000 kPa | 227.11
264.16 K, 5000 kPa | 230.61
264.17 K, 100 kPa | 232.86
264.18 K, 10000 kPa | 228.61
274.59 K, 15000 kPa | 249.36
274.63 K, 100 kPa | 257.81
274.63 K, 5000 kPa | 252.81
274.63 K, 10000 kPa | 250.86
284.25 K, 10000 kPa | 273.79
284.26 K, 100 kPa | 278.04
284.27 K, 5000 kPa | 275.79
284.3 K, 15000 kPa | 272.29
294.09 K, 5000 kPa | 297.5
294.09 K, 10000 kPa | 294.82
294.1 K, 100 kPa | 300.52
294.13 K, 15000 kPa | 294
303.94 K, 10000 kPa | 317.35
303.95 K, 100 kPa | 321.61
303.96 K, 5000 kPa | 319.35
303.96 K, 15000 kPa | 315.85
314.92 K, 100 kPa | 347.39
314.92 K, 5000 kPa | 345.14
314.92 K, 10000 kPa | 342.34
314.92 K, 15000 kPa | 340.08
323.71 K, 100 kPa | 374.09
323.72 K, 5000 kPa | 369.47
323.73 K, 10000 kPa | 367.47
323.74 K, 15000 kPa | 364.84
